The values below come from ChEMBL document CHEMBL5291721, “A preclinical secondary pharmacology resource illuminates target-adverse drug reaction associations of marketed drugs” (Nat Commun, 2023).

One test concerns the target Melanocortin receptor 3 (Homo sapiens, UniProt P41968).
In test [1] the target is T1, Cholecystokinin receptor type A (Homo sapiens, UniProt P32238).
T1 sequence (P32238 whole entry): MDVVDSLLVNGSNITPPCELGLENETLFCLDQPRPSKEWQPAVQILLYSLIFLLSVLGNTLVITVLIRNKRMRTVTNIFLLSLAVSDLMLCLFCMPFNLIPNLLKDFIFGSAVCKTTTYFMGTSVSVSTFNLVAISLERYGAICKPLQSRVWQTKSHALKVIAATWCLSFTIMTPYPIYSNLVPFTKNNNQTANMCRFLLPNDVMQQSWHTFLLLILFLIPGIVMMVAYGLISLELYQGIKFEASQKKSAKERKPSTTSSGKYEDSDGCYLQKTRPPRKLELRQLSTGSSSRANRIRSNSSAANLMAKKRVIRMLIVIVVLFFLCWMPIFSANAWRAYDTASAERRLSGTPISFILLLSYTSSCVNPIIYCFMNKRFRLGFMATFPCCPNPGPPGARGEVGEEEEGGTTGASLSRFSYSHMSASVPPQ

The target in the next test is D(3) dopamine receptor (Homo sapiens, UniProt P35462).
The target of the next test is T2, Adenosine receptor A3 (Homo sapiens, UniProt P0DMS8).
T2 sequence (P0DMS8 whole entry): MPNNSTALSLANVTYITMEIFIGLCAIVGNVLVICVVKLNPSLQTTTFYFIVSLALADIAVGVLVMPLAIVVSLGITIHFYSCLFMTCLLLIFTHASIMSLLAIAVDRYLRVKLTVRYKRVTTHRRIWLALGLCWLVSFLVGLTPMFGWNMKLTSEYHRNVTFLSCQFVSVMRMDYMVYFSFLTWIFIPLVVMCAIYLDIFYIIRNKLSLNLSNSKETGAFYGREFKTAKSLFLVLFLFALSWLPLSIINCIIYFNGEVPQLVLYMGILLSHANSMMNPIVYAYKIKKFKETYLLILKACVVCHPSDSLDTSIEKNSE

Test [2] has as its target 3',5'-cyclic-AMP phosphodiesterase 4D (Homo sapiens, UniProt Q08499). It counts as functional.
Test [3] deals with T3, Prostaglandin G/H synthase 1 (Rattus norvegicus, UniProt Q63921).
T3 sequence (Q63921 whole entry): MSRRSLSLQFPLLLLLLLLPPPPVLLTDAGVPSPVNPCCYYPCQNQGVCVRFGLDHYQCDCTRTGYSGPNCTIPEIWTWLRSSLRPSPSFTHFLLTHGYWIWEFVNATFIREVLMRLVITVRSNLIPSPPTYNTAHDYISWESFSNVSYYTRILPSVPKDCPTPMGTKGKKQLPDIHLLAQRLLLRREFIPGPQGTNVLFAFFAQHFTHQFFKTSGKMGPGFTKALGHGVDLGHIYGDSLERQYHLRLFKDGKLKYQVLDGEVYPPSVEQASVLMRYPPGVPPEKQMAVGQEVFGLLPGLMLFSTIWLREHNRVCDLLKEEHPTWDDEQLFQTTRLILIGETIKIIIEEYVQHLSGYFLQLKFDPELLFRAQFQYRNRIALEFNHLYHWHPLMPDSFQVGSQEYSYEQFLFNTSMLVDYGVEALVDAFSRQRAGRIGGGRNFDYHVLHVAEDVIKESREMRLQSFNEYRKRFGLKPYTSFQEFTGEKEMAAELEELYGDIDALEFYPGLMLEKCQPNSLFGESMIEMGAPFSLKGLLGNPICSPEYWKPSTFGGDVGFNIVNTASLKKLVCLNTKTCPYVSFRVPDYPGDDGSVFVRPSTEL
It counts as functional.

For test [4], the target named is T4, Alpha-2C adrenergic receptor (Homo sapiens, UniProt P18825).
T4 sequence (P18825 whole entry): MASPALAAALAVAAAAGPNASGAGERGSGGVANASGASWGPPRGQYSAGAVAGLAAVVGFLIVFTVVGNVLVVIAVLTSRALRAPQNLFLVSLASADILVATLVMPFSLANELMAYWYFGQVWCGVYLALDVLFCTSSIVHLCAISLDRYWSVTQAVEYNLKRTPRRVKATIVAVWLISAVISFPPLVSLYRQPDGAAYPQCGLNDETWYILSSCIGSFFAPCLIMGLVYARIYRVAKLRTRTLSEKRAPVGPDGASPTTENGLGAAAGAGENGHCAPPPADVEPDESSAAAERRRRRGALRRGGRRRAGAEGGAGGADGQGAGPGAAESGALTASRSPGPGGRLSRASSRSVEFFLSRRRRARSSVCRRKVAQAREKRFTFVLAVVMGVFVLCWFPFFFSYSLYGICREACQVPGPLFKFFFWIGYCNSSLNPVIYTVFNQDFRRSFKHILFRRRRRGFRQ
It counts as functional.

Test [5] addresses Gamma-aminobutyric acid receptor subunit alpha-1 (Rattus norvegicus, UniProt P62813). It counts as functional.
Test [6] concerns the target 5-hydroxytryptamine receptor 2B (Homo sapiens, UniProt P41595). It counts as functional, cell-based.
For test [7], the target named is Voltage-gated inwardly rectifying potassium channel KCNH2 (Homo sapiens, UniProt Q12809). It counts as functional. The following applies: read-out: AC50.
Another test has as its target D(1A) dopamine receptor (Homo sapiens, UniProt P21728). It counts as functional, cell-based.
The target in test [8] is T5, Alpha-2A adrenergic receptor (Homo sapiens, UniProt P08913).
T5 sequence (P08913 whole entry): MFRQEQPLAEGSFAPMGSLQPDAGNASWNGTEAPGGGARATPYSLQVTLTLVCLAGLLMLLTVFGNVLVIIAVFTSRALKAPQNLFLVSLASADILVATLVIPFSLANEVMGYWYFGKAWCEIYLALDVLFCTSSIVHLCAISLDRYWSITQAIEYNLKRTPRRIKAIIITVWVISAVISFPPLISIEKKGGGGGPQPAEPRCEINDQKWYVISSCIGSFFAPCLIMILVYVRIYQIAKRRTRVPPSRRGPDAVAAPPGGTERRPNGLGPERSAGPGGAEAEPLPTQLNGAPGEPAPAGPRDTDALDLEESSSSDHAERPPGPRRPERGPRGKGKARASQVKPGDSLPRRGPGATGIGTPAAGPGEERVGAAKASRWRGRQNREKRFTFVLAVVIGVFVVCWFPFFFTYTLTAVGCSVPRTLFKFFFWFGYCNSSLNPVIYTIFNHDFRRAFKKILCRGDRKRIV
It counts as functional, cell-based.

Test [9] deals with T5, Alpha-2A adrenergic receptor. It counts as functional, cell-based. This is another data set of the same source.

As a reminder, the AC50 is the concentration giving half of the maximal activity seen.
Note: assay procedure not described here.

Sequence of D(3) dopamine receptor (P35462 whole entry): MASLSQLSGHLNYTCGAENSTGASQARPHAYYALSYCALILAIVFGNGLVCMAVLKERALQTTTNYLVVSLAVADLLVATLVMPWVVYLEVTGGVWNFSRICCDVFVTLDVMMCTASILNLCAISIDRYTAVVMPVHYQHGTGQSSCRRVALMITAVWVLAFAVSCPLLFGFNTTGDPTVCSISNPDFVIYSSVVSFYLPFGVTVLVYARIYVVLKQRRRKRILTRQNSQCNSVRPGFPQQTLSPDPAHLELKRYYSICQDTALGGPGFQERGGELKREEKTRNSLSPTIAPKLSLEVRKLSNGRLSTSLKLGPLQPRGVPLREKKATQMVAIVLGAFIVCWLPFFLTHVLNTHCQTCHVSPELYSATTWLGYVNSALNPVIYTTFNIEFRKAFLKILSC
Sequence of 5-hydroxytryptamine receptor 2B (P41595 whole entry): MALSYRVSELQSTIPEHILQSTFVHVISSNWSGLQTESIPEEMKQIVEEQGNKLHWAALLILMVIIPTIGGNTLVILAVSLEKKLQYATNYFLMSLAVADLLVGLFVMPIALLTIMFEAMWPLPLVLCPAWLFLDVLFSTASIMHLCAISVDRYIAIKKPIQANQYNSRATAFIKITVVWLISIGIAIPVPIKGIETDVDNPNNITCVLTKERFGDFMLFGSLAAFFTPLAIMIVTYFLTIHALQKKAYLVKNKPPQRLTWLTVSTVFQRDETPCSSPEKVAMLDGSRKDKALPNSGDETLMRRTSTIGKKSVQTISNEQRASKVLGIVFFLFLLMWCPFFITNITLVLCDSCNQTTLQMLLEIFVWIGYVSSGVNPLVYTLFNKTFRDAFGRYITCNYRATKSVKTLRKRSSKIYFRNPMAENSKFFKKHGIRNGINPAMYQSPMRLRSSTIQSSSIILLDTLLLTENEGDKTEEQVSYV
Sequence of 3',5'-cyclic-AMP phosphodiesterase 4D (Q08499 whole entry): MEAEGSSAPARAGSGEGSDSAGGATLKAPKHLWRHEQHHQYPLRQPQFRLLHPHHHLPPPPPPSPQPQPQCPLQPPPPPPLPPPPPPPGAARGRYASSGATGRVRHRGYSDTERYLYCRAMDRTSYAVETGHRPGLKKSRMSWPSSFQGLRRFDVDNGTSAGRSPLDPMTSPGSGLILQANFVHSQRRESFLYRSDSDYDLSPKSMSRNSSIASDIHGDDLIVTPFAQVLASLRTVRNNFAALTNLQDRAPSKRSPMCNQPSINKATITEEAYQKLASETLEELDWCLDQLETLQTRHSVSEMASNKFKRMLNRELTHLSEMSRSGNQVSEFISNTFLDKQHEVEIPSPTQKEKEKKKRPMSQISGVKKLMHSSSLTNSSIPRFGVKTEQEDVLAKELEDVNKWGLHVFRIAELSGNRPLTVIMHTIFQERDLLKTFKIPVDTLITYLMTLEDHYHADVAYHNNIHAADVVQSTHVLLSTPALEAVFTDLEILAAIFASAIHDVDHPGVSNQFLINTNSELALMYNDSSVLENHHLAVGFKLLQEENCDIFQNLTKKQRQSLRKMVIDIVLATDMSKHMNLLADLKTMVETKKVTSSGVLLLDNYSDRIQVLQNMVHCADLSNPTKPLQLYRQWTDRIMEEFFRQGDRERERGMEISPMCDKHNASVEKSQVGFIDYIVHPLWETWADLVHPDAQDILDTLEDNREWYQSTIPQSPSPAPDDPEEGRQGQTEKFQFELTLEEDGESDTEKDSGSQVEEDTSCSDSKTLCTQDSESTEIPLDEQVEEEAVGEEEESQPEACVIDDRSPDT
Sequence of Melanocortin receptor 3 (P41968 whole entry): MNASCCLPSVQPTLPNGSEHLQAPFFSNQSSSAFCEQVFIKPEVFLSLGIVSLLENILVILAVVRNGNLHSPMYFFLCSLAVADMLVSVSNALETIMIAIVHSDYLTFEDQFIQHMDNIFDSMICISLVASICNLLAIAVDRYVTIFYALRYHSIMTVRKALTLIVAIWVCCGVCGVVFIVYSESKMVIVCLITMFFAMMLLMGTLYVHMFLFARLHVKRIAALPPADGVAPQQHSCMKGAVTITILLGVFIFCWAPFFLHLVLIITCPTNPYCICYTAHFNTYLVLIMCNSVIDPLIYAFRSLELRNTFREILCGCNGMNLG
Sequence of Voltage-gated inwardly rectifying potassium channel KCNH2 (Q12809 whole entry): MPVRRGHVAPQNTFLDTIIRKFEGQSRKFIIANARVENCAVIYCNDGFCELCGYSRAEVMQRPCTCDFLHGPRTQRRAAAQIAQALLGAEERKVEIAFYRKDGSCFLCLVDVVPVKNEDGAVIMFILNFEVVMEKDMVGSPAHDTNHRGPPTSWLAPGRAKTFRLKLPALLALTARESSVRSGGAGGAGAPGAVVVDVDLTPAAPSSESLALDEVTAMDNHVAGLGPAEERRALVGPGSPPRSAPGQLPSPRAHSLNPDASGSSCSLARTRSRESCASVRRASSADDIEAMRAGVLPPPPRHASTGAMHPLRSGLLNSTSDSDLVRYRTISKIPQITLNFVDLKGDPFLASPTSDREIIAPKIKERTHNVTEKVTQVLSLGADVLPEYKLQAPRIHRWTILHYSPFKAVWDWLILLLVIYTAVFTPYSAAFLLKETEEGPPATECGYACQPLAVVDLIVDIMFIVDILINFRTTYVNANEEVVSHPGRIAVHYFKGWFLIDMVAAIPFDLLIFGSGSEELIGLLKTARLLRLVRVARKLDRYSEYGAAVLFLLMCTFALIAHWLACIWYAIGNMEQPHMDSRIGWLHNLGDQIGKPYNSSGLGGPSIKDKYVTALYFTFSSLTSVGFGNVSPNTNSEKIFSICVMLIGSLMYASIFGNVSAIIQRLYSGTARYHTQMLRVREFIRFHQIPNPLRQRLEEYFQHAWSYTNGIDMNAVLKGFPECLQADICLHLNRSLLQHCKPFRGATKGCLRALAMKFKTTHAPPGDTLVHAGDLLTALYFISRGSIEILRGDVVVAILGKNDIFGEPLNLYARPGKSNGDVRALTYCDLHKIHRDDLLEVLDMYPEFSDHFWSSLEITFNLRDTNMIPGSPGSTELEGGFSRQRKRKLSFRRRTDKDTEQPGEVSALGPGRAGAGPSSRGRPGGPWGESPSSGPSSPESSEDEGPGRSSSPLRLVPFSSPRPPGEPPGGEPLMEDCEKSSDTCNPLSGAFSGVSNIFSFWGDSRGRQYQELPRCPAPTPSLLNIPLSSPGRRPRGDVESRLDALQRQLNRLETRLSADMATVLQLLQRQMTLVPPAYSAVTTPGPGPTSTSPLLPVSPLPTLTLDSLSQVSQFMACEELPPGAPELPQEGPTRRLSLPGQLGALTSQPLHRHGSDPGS
Sequence of Gamma-aminobutyric acid receptor subunit alpha-1 (P62813 whole entry): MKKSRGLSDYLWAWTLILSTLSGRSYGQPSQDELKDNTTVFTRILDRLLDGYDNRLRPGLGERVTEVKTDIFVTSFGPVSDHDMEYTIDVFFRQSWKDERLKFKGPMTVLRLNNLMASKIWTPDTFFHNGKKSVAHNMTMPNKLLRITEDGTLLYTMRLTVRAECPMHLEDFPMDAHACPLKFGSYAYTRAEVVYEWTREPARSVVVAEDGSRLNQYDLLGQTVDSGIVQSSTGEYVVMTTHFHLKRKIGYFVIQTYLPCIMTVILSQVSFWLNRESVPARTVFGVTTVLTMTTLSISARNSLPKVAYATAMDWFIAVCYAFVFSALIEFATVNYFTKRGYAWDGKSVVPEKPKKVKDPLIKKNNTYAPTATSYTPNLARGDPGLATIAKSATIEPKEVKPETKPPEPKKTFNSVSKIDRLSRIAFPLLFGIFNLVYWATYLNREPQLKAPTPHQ
Sequence of D(1A) dopamine receptor (P21728 whole entry): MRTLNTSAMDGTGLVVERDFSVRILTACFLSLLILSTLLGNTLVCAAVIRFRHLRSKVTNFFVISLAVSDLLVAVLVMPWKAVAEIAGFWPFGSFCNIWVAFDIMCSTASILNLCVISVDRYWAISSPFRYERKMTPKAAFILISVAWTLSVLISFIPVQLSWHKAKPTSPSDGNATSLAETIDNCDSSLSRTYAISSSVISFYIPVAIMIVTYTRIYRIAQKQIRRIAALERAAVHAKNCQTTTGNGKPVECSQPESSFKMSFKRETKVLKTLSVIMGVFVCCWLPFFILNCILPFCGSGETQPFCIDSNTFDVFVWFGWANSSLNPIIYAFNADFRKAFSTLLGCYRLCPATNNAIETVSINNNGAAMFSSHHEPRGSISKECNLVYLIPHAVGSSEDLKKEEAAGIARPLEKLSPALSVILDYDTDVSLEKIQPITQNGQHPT

`CCc1nn(CCCN2CCN(c3cccc(Cl)c3)CC2)c(=O)n1CCOc1ccccc1` [NEFAZODONE]: the AC50 at Melanocortin receptor 3 was over 30 µM; in [1], 13.3 µM; on D(3) dopamine receptor, 1.2 µM; on Adenosine receptor A3, 11.9 µM; in test [2], over 10 µM; in test [3], over 30 µM. In addition, the AC50 in test [4] is 0.63 µM; in [5], over 10 µM; in test [6], 1.1 µM; in test [7], 0.89 µM.

For the compound `NC(N)=Nc1nc(CSCCC(N)=NS(N)(=O)=O)cs1` [FAMOTIDINE], the AC50 was over 30 µM on Melanocortin receptor 3; over 30 µM in test [1]; over 10 µM at D(3) dopamine receptor; over 10 µM at D(1A) dopamine receptor; over 30 µM at Adenosine receptor A3; over 10 µM in [8]. For the same compound, the AC50 in test [2] was over 10 µM; in [9], over 10 µM; in test [3], over 30 µM; in test [4], over 10 µM; in test [5], over 10 µM; in test [6], over 10 µM.

With `Cc1cccc(C)c1OCC(C)N` (stereo not drawn) [MEXILETINE], the half-maximal activity concentration (AC50) (on Melanocortin receptor 3; in test [1]; on D(1A) dopamine receptor; on Adenosine receptor A3; in test [8]; in [2]) was over 30 µM in each case. The AC50 in test [9] is over 30 µM; in test [3] it was over 10 µM; in test [4], over 30 µM; in [6], 8.5 µM; in [7], over 30 µM.

Turning to `CNC(=O)c1cc(Oc2ccc(NC(=O)Nc3ccc(Cl)c(C(F)(F)F)c3)cc2)ccn1` [SORAFENIB], the AC50 on Melanocortin receptor 3 is 23.2 µM; in test [1] it was over 30 µM; on D(3) dopamine receptor it was over 30 µM; at D(1A) dopamine receptor it was over 30 µM; at Adenosine receptor A3, 1.88 µM; in test [8] it was over 30 µM. Further, the concentration at half-maximal activity (AC50) in [2], in [9], in test [3], in test [4], in [5] and in test [7] was over 30 µM throughout.

As to `CC(=O)OCC(=O)[C@@]1(O)CC[C@H]2[C@@H]3CCC4=CC(=O)CC[C@]4(C)[C@H]3C(=O)C[C@@]21C` [CORTISONE ACETATE], the AC50 in [2], in test [4], in [5] and in test [6] was over 30 µM each time.

On to `CCC[C@@H]1C[C@@H](C(=O)N[C@@H]([C@H]2O[C@H](SC)[C@H](O)[C@@H](O)[C@H]2O)[C@H](C)Cl)N(C)C1` [CLINDAMYCIN], for which the half-maximal activity concentration (AC50) is over 30 µM at Melanocortin receptor 3; over 30 µM in test [1]; over 10 µM on D(3) dopamine receptor; over 10 µM on D(1A) dopamine receptor; over 30 µM at Adenosine receptor A3; over 10 µM in test [8]. Further, the AC50 in test [2] is over 30 µM; in test [9], over 10 µM; in test [3], over 30 µM; in [4], over 10 µM; in test [5], over 10 µM; in test [6], over 10 µM.

With `CN1CCCC(n2nc(Cc3ccc(Cl)cc3)c3ccccc3c2=O)CC1` (stereo not drawn) [AZELASTINE], the AC50 on Melanocortin receptor 3 is over 30 µM; in test [1], over 30 µM; at D(3) dopamine receptor it was 6.5 µM; on D(1A) dopamine receptor, over 30 µM; on Adenosine receptor A3 it was over 30 µM; in test [8] it was over 30 µM. Moreover, the AC50 in [2] was over 30 µM; in [9] it was 0.86 µM; in test [3], over 30 µM; in test [4] it was 2.4 µM; in test [5], over 30 µM.

For `COc1cc(Nc2c(C#N)cnc3cc(OCCCN4CCN(C)CC4)c(OC)cc23)c(Cl)cc1Cl` [BOSUTINIB], the AC50 at Melanocortin receptor 3 was 18.1 µM; in [1], over 30 µM; on D(3) dopamine receptor, 5.6 µM; at Adenosine receptor A3, 10.3 µM; in test [2] it was over 30 µM; in [3], over 30 µM. The concentration at half-maximal activity (AC50) in test [4] is 1 µM; in test [5], over 10 µM.

Take `COc1cc2c(cc1OC)C(=O)C(CC1CCN(Cc3ccccc3)CC1)C2` (stereo not drawn) [DONEPEZIL]: the AC50 at Melanocortin receptor 3 was over 30 µM; in test [1], over 30 µM; on D(1A) dopamine receptor it was over 10 µM; at Adenosine receptor A3, over 30 µM; in [8] it was over 10 µM; in [2] it was over 30 µM. Also, the AC50 in test [9] was over 10 µM; in [3], over 30 µM; in test [4] it was 6.2 µM; in test [5], over 10 µM.

Take `CN(C)CCCN1c2ccccc2CCc2ccc(Cl)cc21` [CLOMIPRAMINE]: the AC50 is 0.3 µM at D(3) dopamine receptor; over 10 µM in test [8]; over 10 µM in test [9]; over 10 µM in test [5]; 5.6 µM in test [6].

For the compound `CC(N)Cc1ccccc1` (stereo not drawn) [AMPHETAMINE], the concentration at half-maximal activity (AC50) (at Melanocortin receptor 3; in [1]; at D(3) dopamine receptor; on Adenosine receptor A3; in [8]; in test [2]) was over 30 µM in each case. Also, the AC50 in [9], in test [3], in [4], in test [5], in test [6] and in test [7] was over 30 µM throughout.

Turning to `O=C(NC[C@H]1CN(c2ccc(N3CCOCC3=O)cc2)C(=O)O1)c1ccc(Cl)s1` [RIVAROXABAN], the AC50 (at Melanocortin receptor 3; on D(3) dopamine receptor; on D(1A) dopamine receptor; on Adenosine receptor A3; in test [8]; in [2]) was over 30 µM in each case. Besides, the AC50 in test [9], in test [3], in test [4], in [5] and in test [6] was over 30 µM in each case.
